Each structure is given as a SMILES string. pIC50: −log10 of the molar value.

The text below walks through data of US20140288044A1, “COMPOSITIONS AND THERAPEUTIC USES OF IKK-RELATED KINASE EPSILON AND TANKBINDING KINASE 1 INHIBITORS” (Alzheimer's Institute of America, Inc., priority 2011, published 2014).

The test system of the first assay is IKKε-mediated phosphorylation of IRF3. Put plainly: ELISA for in-situ phosphorylation of IRF3 (phospho-Ser396) in HEK293T cells cotransfected with IRF3 and IKKε. The format is cell-based. The settings on record: Homo sapiens, HEK-293T, 20 h, HEK293T cells, 20 hours; range given from about 1 μM to about 250 nM; read-out: IC50, in-situ IKKε-mediated phosphorylation of IRF3. On the procedure: HEK293T cells were cotransfected in a 10-cm dish with IRF3 and IKKε expression plasmids using Lipofectamine 2000 (Invitrogen, Carlsbad, Calif.). The following day, cells were replated at 20,000 per well in 96-well plates and treated with test compounds (compounds according to Formulae I and/or II) for 20 hours. Cell lysates were prepared and analyzed using an ELISA for phospho-Ser396 (anti-IRF3 capture antibody, Santa Cruz Biotechnology, Inc., Santa Cruz, Calif.; anti-p-Ser396 IRF3 detection antibody, Cell Signaling, Danvers, Mass.). pIRF3 levels in compound treated cells were normalized to DMSO treated cells (no compound). Cell viability was assayed in a parallel set of plates to monitor cytotoxic effects of the test compounds (CellTiter-Glo, Promega, Inc., Madison, Wis.). TBK1 activity was tested by Western blotting using a phospho-specific IRF7 antibody. Similar to above, HEK293T cells were transfected with IRF7 and TBK1 expression plasmids. Cells were seeded in 12-well plates at 150,000 per well and treated overnight with test compounds. Protein lysates were prepared and processed for Western blotting followed by detection using a phosphor-Ser477/Ser479 IRF7 antibody (BD Biosciences, San Jose, Calif.)
The pIC50 is −log10 of the IC50, conventionally taken in molar units. In the case of `COC1CN(C(=O)c2cncc(Nc3nccc(-c4ccc(OC5CCOCC5)c(C#N)c4)n3)c2)C1` [Example Compound 171, 5-[2-({5-[(3-Methoxyazetidin-1-yl)carbonyl]pyridin-3-yl}amino)pyrimidin-4-yl]-2-(tetrahydro-2H-pyran-4-yloxy)benzonitrile], the pIC50 was 6.00 to 6.60.
Still for that read-out and setting: to `N#Cc1cc(-c2ccnc(Nc3ccnc(N4CCC[C@H]4CO)c3)n2)ccc1OC1CCOCC1` [Example Compound 180, 5-[2-({2-[(2S)-2-(Hydroxymethyl)pyrrolidin-1-yl]pyridin-4-yl}amino)pyrimidin-4-yl]-2-(tetrahydro-2H-pyran-4-yloxy)benzonitrile] belongs 6.00 to 6.60.
On to `CN(C)c1ccc(Nc2nccc(-c3ccc(OC4CCN(C(=O)CO)C4)c(C#N)c3)n2)cn1` (stereo not shown) [Example Compound 192, 5-(2-{[6-(Dimethylamino)pyridin-3-yl]amino}pyrimidin-4-yl)-2-{[1-(hydroxyacetyl)pyrrolidin-3-yl]oxy}benzonitrile], for which the pIC50 was 6.00 to 6.60.
`CNCc1cncc(Nc2nccc(-c3ccc(OC4CCOCC4)c(C#N)c3)n2)c1` [Example Compound 203, 5-[2-({5-[(Methylamino)methyl]pyridin-3-yl}amino)pyrimidin-4-yl]-2-(tetrahydro-2H-pyran-4-yloxy)benzonitrile]: the pIC50 is 6.00 to 6.60.
For `COCCNc1cc(Nc2nccc(-c3ccc(NC(=O)C4CC4)c(C#N)c3)n2)ccn1` [Example Compound 242, N-{2-Cyano-4-[2-({2-[(2-methoxyethyl)amino]pyridin-4-yl}amino)pyrimidin-4-yl]phenyl}cyclopropanecarboxamide], the pIC50 was 6.00 to 6.60.

The assay is the same for the next values; noted with them: Homo sapiens, HEK-293T, 20 h, HEK293T cells, 20 hours; read-out: IC50, in-situ IKKε-mediated phosphorylation of IRF3.
For `CN(C)c1ccc(Nc2nccc(-c3ccc(OC4CCOCC4)c(C#N)c3)n2)cn1` [Example Compound 152, 5-(2-{[6-(Dimethylamino)pyridin-3-yl]amino}pyrimidin-4-yl)-2-(tetrahydro-2H-pyran-4-yloxy)benzonitrile], the pIC50 was 6.60 to 7.00.
Still for that read-out and setting: to `CCN(CC)c1ccc(Nc2nccc(-c3ccc(OC4CCOCC4)c(C#N)c3)n2)cn1` [Example Compound 153, 5-(2-{[6-(Diethylamino)pyridin-3-yl]amino}pyrimidin-4-yl)-2-(tetrahydro-2H-pyran-4-yloxy)benzonitrile] belongs 6.60 to 7.00; to `N#Cc1cc(-c2ccnc(Nc3ccc(C(=O)N4CCN(CCO)CC4)s3)n2)ccc1OC1CCOCC1` [Example Compound 163, 5-{2-[(5-{[4-(2-Hydroxyethyl)piperazin-1-yl]carbonyl}thiophen-2-yl)amino]pyrimidin-4-yl}-2-(tetrahydro-2H-pyran-4-yloxy)benzonitrile], 6.60 to 7.00.
On the same count and under the same terms, the value for `CN(C)c1ccc(-c2ccc(Nc3nccc(-c4ccc(OC5CCOCC5)c(C#N)c4)n3)cn2)cn1` [Example Compound 169, 5-(2-{[6′-(Dimethylamino)-2,3′-bipyridin-5-yl]amino}pyrimidin-4-yl)-2-(tetrahydro-2H-pyran-4-yloxy)benzonitrile] was 5.30 to 6.00; that for `N#Cc1cc(-c2ccnc(Nc3cncc(C(=O)N4CCOCC4)c3)n2)ccc1OC1CCOCC1` [Example Compound 172, 5-(2-{[5-(Morpholin-4-ylcarbonyl)pyridin-3-yl]amino}pyrimidin-4-yl)-2-(tetrahydro-2H-pyran-4-yloxy)benzonitrile] was 5.30 to 6.00; that for `N#Cc1cc(-c2ccnc(Nc3cncc(C(=O)N4CCN(CCO)CC4)c3)n2)ccc1OC1CCOCC1` [Example Compound 174, 5-{2-[(5-{[4-(2-Hydroxyethyl)piperazin-1-yl]carbonyl}pyridin-3-yl)amino]pyrimidin-4-yl}-2-(tetrahydro-2H-pyran-4-yloxy)benzonitrile] was 5.30 to 6.00.
The same measure, in the same setting: to `N#Cc1cc(-c2ccnc(Nc3ccc(N4CCC(N5CCOCC5)C4)nn3)n2)ccc1OC1CCOCC1` (stereo not shown) [Example Compound 177, 5-[2-({6-[3-(Morpholin-4-yl)pyrrolidin-1-yl]pyridazin-3-yl}amino)pyrimidin-4-yl]-2-(tetrahydro-2H-pyran-4-yloxy)benzonitrile] belongs 5.30 to 6.00.
Consider `COC1CCN(c2cc(Nc3nccc(-c4ccc(OC5CCOCC5)c(C#N)c4)n3)ccn2)C1` (stereo not shown) [Example Compound 181, 5-(2-{[2-(3-Methoxypyrrolidin-1-yl)pyridin-4-yl]amino}pyrimidin-4-yl)-2-(tetrahydro-2H-pyran-4-yloxy)benzonitrile], for which the pIC50 was 5.30 to 6.00.
As to `N#Cc1cc(-c2ccnc(Nc3cncc(CN4CCN(CCO)CC4)c3)n2)ccc1OC1CCOCC1` [Example Compound 186, 5-{2-[(5-{[4-(2-Hydroxyethyl)piperazin-1-yl]methyl}pyridin-3-yl)amino]pyrimidin-4-yl}-2-(tetrahydro-2H-pyran-4-yloxy)benzonitrile], the pIC50 is 5.30 to 6.00.
For the compound `CN(C)Cc1cncc(Nc2nccc(-c3ccc(OC4CCOCC4)c(C#N)c3)n2)c1` [Example Compound 201, 5-[2-({5-[(Dimethylamino)methyl]pyridin-3-yl}amino)pyrimidin-4-yl]-2-(tetrahydro-2H-pyran-4-yloxy)benzonitrile], the pIC50 is 6.60 to 7.00.
Turning to `CNCc1cncc(Nc2nccc(-c3ccc(OC4CCOCC4)c(C#N)c3)n2)c1` [Example Compound 202, 5-[2-({5-[(Methylamino)methyl]pyridin-3-yl}amino)pyrimidin-4-yl]-2-(tetrahydro-2H-pyran-4-yloxy)benzonitrile], the pIC50 was 6.60 to 7.00.
Same read-out and setting: the value for `N#Cc1cc(-c2ccnc(Nc3ccc(N4CCOCC4)cn3)n2)ccc1OC1CCOCC1` [Example Compound 216, 5-(2-{[5-(Morpholin-4-yl)pyridin-2-yl]amino}pyrimidin-4-yl)-2-(tetrahydro-2H-pyran-4-yloxy)benzonitrile] was 5.30 to 6.00; that for `N#Cc1cc(-c2ccnc(Nc3ccnc(C(=O)N4CCCC4)c3)n2)ccc1OC1CCN(C(=O)CO)CC1` [Example Compound 233, 2-{[1-(Hydroxyacetyl)piperidin-4-yl]oxy}-5-(2-{[2-(pyrrolidin-1-ylcarbonyl)pyridin-4-yl]amino}pyrimidin-4-yl)benzonitrile] was 5.30 to 6.00.
Take `COC1CN(C(C)c2ccc(Nc3nccc(-c4ccc(OC5CCOCC5)c(C#N)c4)n3)cn2)C1` (stereo not shown) [Example Compound 234, 5-[2-({6-[1-(3-Methoxyazetidin-1-yl)ethyl]pyridin-3-yl}amino)pyrimidin-4-yl]-2-(tetrahydro-2H-pyran-4-yloxy)benzonitrile]: the pIC50 is 6.60 to 7.00.
Regarding `Cc1ccc(Nc2nccc(-c3ccc(OC4CCN(C(=O)[C@H](C)O)CC4)c(C#N)c3)n2)c[n+]1[O-]` [Example Compound 235, 2-({1-[(2S)-2-Hydroxypropanoyl]piperidin-4-yl}oxy)-5-{2-[(6-methyl-1-oxidopyridin-3-yl)amino]pyrimidin-4-yl}benzonitrile], the pIC50 was 5.30 to 6.00.
Same read-out and setting: to `N#Cc1cc(-c2ccnc(Nc3ccc[n+]([O-])c3)n2)ccc1OC1CCOCC1` [Example Compound 236, 5-{2-[(1-Oxidopyridin-3-yl)amino]pyrimidin-4-yl}-2-(tetrahydro-2H-pyran-4-yloxy)benzonitrile] belongs 5.30 to 6.00; to `CC(C)C(=O)Nc1ccc(-c2ccnc(Nc3ccnc(N4CC(O)C4)c3)n2)cc1C#N` [Example Compound 246, N-[2-Cyano-4-(2-{[2-(3-hydroxyazetidin-1-yl)pyridin-4-yl]amino}pyrimidin-4-yl)phenyl]-2-methylpropanamide], 5.30 to 6.00.
